In one assay the test system is HCV 1b-377-neo replicon cells. Put plainly: HCV replicon assay, HCV 1b-377-neo replicon cells (1b FRET). The format is cell-based, Hepatitis C virus genotype 1b. The conditions noted are these: HCV 1b-377-neo replicon cells; HCV 1b genotype; read-out: EC50 range against HCV 1b (Table 2, Range). In outline: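 Compounds tested in HCV genotype 1b-377-neo replicon cells with a FRET read-out. Cells resistant to a reference NS5A inhibitor through a Y2065H NS5A mutation were run alongside wild-type cells.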
On to `COC(=O)N[C@@H](C(=O)N1CCC[C@H]1c1ncc(-c2ccc(-c3ccc(-c4cnc([C@@H]5CCCN5C(=O)Cc5cc(C)no5)[nH]4)cc3)cc2)[nH]1)c1ccccc1` [Example 84-74, methyl ((1R)-2-((2)S-2-(5-(4′-(2-((2S)-1-((3-methyl-5-isoxazolyl)acetyl)-2-pyrrolidinyl)-1H-imidazol-5-yl)-4-biphenylyl)-1H-imidazol-2-yl)-1-pyrrolidinyl)-2-oxo-1-phenylethyl)carbamate], for which the concentration giving a half-maximal response (EC50) lay within 0.001 to 0.999 nM.
On the same count and under the same terms, then `COC(=O)N[C@@H](C(=O)N1CCC[C@H]1c1ncc(-c2ccc(-c3ccc(-c4cnc([C@@H]5CCCN5C(=O)[C@H](OC)c5ccccc5)[nH]4)cc3)cc2)[nH]1)c1ccccc1` [Example 84-80, methyl ((1R)-2-((2S)-2-(5-(4′-(2-((2S)-1-((2R)-2-methoxy-2-phenylacetyl)-2-pyrrolidinyl)-1H-imidazol-5-yl)-4-biphenylyl)-1H-imdiazol-2-yl)-1-pyrrolidinyl)-2-oxo-1-phenylethyl)carbamate], with 0.001 to 0.999 nM; and `COC(=O)N[C@@H](C(=O)N1CCC[C@H]1c1ncc(-c2ccc(-c3ccc(-c4cnc([C@@H]5CCCN5C(=O)Cc5ccccc5CN5CCCCC5)[nH]4)cc3)cc2)[nH]1)c1ccccc1` [Example 84-85, methyl ((1R)-2-oxo-1-phenyl-2-((2S)-2-(5-(4′-(2-((2S)-1-((2-(1-piperidinylmethyl)phenyl)acetyl)-2-pyrrolidinyl)-1H-imidazol-5-yl)-4-biphenylyl)-1H-imidazol-2-yl)-1-pyrrolidinyl)ethyl)carbamate], with 0.001 to 0.999 nM.

The same assay, now with this note: Hepatitis C virus, HCV 1b-377-neo replicon cells; HCV 1b genotype; read-out: EC50 range against HCV 1b (Table 2, Range).
Consider `COC(=O)N[C@@H](C(=O)N1CCC[C@H]1c1ncc(-c2ccc(-c3ccc(-c4cnc([C@@H]5CCCN5C(=O)Cc5csc(C)n5)[nH]4)cc3)cc2)[nH]1)c1ccccc1` [Example 84-72, methyl ((1R)-2-((2S)-2-(5-(4′-(2-((2S)-1-((2-methyl-1,3-thiazol-4-yl)acetyl)-2-pyrrolidinyl)-1H-imidazol-5-yl)-4-biphenylyl)-1H-imidazol-2-yl)-1-pyrrolidinyl)-2-oxo-1-phenylethyl)carbamate], for which the concentration for a half-maximal effect (EC50) was in the range of 1 to 99 nM.
Same read-out and setting: with `COC(=O)N[C@@H](C(=O)N1CCC[C@H]1c1ncc(-c2ccc(-c3ccc(-c4cnc([C@@H]5CCCN5C(=O)Cc5ccsc5)[nH]4)cc3)cc2)[nH]1)c1ccccc1` [Example 84-73, methyl ((1R)-2-oxo-1-phenyl-2-((2S)-2-(5-(4′-(2-((2S)-1-(3-thienylacetyl)-2-pyrrolidinyl)-1H-imidazol-5-yl)-4-biphenylyl)-1H-imidazol-2-yl)-1-pyrrolidinyl)ethyl)carbamate] the figure was 1 to 99 nM.
The same measure, in the same setting: then `COC(=O)N[C@@H](C(=O)N1CCC[C@H]1c1ncc(-c2ccc(-c3ccc(-c4cnc([C@@H]5CCCN5C(=O)CC5CCCCC5)[nH]4)cc3)cc2)[nH]1)c1ccccc1` [Example 84-75, methyl ((1R)-2-((2S)-2-(5-(4′-(2-((2S)-1-(cyclohexylacetyl)-2-pyrrolidinyl)-1H-imidazol-5-yl)-4-biphenylyl)-1H-imidazol-2-yl)-1-pyrrolidinyl)-2-oxo-1-phenylethyl)carbamate], with 1 to 99 nM; and `COC(=O)N[C@@H](C(=O)N1CCC[C@H]1c1ncc(-c2ccc(-c3ccc(-c4cnc([C@@H]5CCCN5C(=O)[C@H](C)c5ccccc5)[nH]4)cc3)cc2)[nH]1)c1ccccc1` [Example 84-76, methyl ((1R)-2-oxo-1-phenyl-2-((2S)-2-(5-(4′-(2-((2S)-1-((2R)-2-phenylpropanoyl)-2-pyrrolidinyl)-1H-imidazol-5-yl)-4-biphenylyl)-1H-imidazol-2-yl)-1-pyrrolidinyl)ethyl)carbamate], with 0.001 to 0.999 nM.
On the same count and under the same terms, with `COC(=O)N[C@@H](C(=O)N1CCC[C@H]1c1ncc(-c2ccc(-c3ccc(-c4cnc([C@@H]5CCCN5C(=O)C5(c6ccccc6)CC5)[nH]4)cc3)cc2)[nH]1)c1ccccc1` [Example 84-77, methyl ((1R)-2-oxo-1-phenyl-2-((2S)-2-(5-(4′-(2-((2S)-1-((1-phenylcyclopropyl)carbonyl)-2-pyrrolidinyl)-1H-imidazol-5-yl)-4-biphenylyl)-1H-imidazol-2-yl)-1-pyrrolidinyl)ethyl)carbamate] the figure was 0.001 to 0.999 nM; with `COC(=O)N[C@@H](C(=O)N1CCC[C@H]1c1ncc(-c2ccc(-c3ccc(-c4cnc([C@@H]5CCCN5C(=O)C5(c6ccc(Cl)cc6)CC5)[nH]4)cc3)cc2)[nH]1)c1ccccc1` [Example 84-78, methyl ((1R)-2-((2S)-2-(5-(4′-(2-((2S)-1-((1-(4-chlorophenyl)cyclopropyl)carbonyl)-2-pyrrolidinyl)-1H-imidazol-5-yl)-4-biphenylyl)-1H-imidazol-2-yl)-1-pyrrolidinyl)-2-oxo-1-phenylethyl)carbamate], 0.001 to 0.999 nM; with `COC(=O)N[C@@H](C(=O)N1CCC[C@H]1c1ncc(-c2ccc(-c3ccc(-c4cnc([C@@H]5CCCN5C(=O)C(C)(C)c5ccc(Cl)cc5)[nH]4)cc3)cc2)[nH]1)c1ccccc1` [Example 84-79, methyl ((1R)-2-((2S)-2-(5-(4′-(2-((2S)-1-(2-(4-chlorophenyl)-2-methylpropanoyl)-2-pyrrolidinyl)-1H-imidazol-5-yl)-4-biphenylyl)-1H-imidazol-2-yl)-1-pyrrolidinyl)-2-oxo-1-phenylethyl)carbamate], 0.001 to 0.999 nM.
Take `COC(=O)N[C@@H](C(=O)N1CCC[C@H]1c1ncc(-c2ccc(-c3ccc(-c4cnc([C@@H]5CCCN5C(=O)[C@@](OC)(c5ccccc5)C(F)(F)F)[nH]4)cc3)cc2)[nH]1)c1ccccc1` [Example 84-81, methyl ((1R)-2-oxo-1-phenyl-2-((2S)-2-(5-(4′-(2-((2S)-1-((2S)-3,3,3-trifluoro-2-methoxy-2-phenylpropanoyl)-2-pyrrolidinyl)-1H-imidazol-5-yl)-4-biphenylyl)-1H-imidazol-2-yl)-1-pyrrolidinyl)ethyl)carbamate]: the EC50 was 0.001 to 0.999 nM.
On the same count and under the same terms, with `COC(=O)N[C@@H](C(=O)N1CCC[C@H]1c1ncc(-c2ccc(-c3ccc(-c4cnc([C@@H]5CCCN5C(=O)[C@H](OC(C)=O)c5ccccc5)[nH]4)cc3)cc2)[nH]1)c1ccccc1` [Example 84-82, (1R)-2-((2S)-2-(5-(4′-(2-((2S)-1-((2R)-2-((methoxycarbonyl)amino)-2-phenylacetyl)-2-pyrrolidinyl)-1H-imidazol-5-yl)-4-biphenylyl)-1H-imidazol-2-yl)-1-pyrrolidinyl)-2-oxo-1-phenylethyl acetate] the figure was 0.001 to 0.999 nM; with `COC(=O)N[C@@H](C(=O)N1CCC[C@H]1c1ncc(-c2ccc(-c3ccc(-c4cnc([C@@H]5CCCN5C(=O)[C@@H](OC(C)=O)c5ccccc5)[nH]4)cc3)cc2)[nH]1)c1ccccc1` [Example 84-83, (1S)-2-((2S)-2-(5-(4′-(2-((2S)-1-((2R)-2-((methoxycarbonyl)amino)-2-phenylacetyl)-2-pyrrolidinyl)-1H-imidazol-5-yl)-4-biphenylyl)-1H-imidazol-2-yl)-1-pyrrolidinyl)-2-oxo-1-phenylethyl acetate], 0.001 to 0.999 nM; with `COC(=O)N[C@@H](C(=O)N1CCC[C@H]1c1ncc(-c2ccc(-c3ccc(-c4cnc([C@@H]5CCCN5C(=O)Cc5ccccc5CN5CCOCC5)[nH]4)cc3)cc2)[nH]1)c1ccccc1` [Example 84-84, methyl ((1R)-2-((2S)-2-(5-(4′-(2-((2S)-1-((2-(4-morpholinylmethyl)phenyl)acetyl)-2-pyrrolidinyl)-1H-imidazol-5-yl)-4-biphenylyl)-1H-imidazol-2-yl)-1-pyrrolidinyl)-2-oxo-1-phenylethyl)carbamate], 0.001 to 0.999 nM.
